Source: US7196110B2, “N-substituted tricyclic 3-aminopyrazoles as inhibitors for the treatment of cell proliferative disorders” (Janssen Phamaceutica N.V., priority 2002, dated 2007)
Read-outs that look alike come from different tables or passages of the source.

Biological target: T1, PDGF-receptor beta enzyme comprising the tyrosine kinase domain (Homo sapiens, UniProt P09619)
T1 construct: from amino acid 545 to 1106 of GenBank Access NO: AAA36427
Experiment: Inhibition of PDGF-receptor kinase activity (cell-free, PLC1 peptide, 33P Flashplate)
Format: biochemical
Conditions: for inhibition at 10 µM: compound at 10 uM, read-out: Percent Inhibition @ 10 uM
Protocol: PDGF-R kinase activity was assayed by its ability to phosphorylate one of its target proteins, PLCγ, in a cell-free system, in particular, a PLC1 peptide comprising the tyrosine residue where the phosphorylation occurs was used for the assay.
10× Kinase Buffer (500 mM Tris-HCl pH=8, 100 mM MgCl2, 1 mM Na3VO4); 10 mM DTT (final concentration at 1 mM in assay); 10 mM ATP (final concentration at 5 μM in assay); ^33P-γ-ATP (Cat. No.: NEG/602H. 2000-3000 Ci/mmol) purchased from NEN; Purified, soluble, recombinant PDGF-receptor beta enzyme comprising the tyrosine kinase domain (from amino acid 545 to 1106 of GenBank Access NO: AAA36427 ) at 0.4 mg/mL; Enzyme Dilution Buffer (50 mM Tris-HCl pH=8.0, 0.1% BSA); Wash/Stop Buffer (PBS +100 mM EDTA); NEN Streptavidin Flashplates (Cat. No.: SMP-103) which binds to the biotinylated PLC1 peptide but not the PDGF-R enzyme; PLC1 peptide (Biotin-[…]-Amide) at 1 mM in 50 mM Tris-HCL with pH of 8.0.
Reagents were first mixed according the following regimen:
The above reaction mixture was dispensed into each well of a Flashplate at 70 μl/well. To test the effect of a compound on PDGF-R kinase activity, the test compound either in a fixed concentration or in serially diluted concentrations in 100% DMSO was added to appropriate wells at 1 μl/well.
Enzyme PDGF-R was diluted in Enzyme dilution buffer as following:
The kinase reaction was initiated by adding 30 μl of diluted PDGF-R enzyme solution to each well on the Flashplate containing hot ATP and PLC1, except wells of column 12 rows E through H, which were used to calculate the plate background. The Flashplate was swirled to mix and was incubated at 30° C. for 60 minutes. Then, the reaction mixture was discarded and the Flashplate was washed 3 times each with 200 μl Wash/Stop Buffer. Subsequently, each well on the Flashplate was filled with 200 μl of Wash/Stop buffer. The amount of ^33P retained in each well was measured using a Packard TopCount after the plate was sealed with a transparent plate sealer.
The percentage of inhibition of the test compound on PDGF-R kinase activity is defined as […].
In order to test the potency of inhibition of present compounds, an IC50 for an individual compound was measured using the above procedure. As used herein, the IC50 for PDGF-R kinase activity refers to the concentration of an inhibitor at which the activity of the PDGF-R kinase is reduced by one-half as compared with reactions containing no inhibitor.

[1] = PDGF-R kinase activity, read-out: IC50
[2] = read-out: IC50 (μM) on PDGF-R kinase activity

T1 sequence (P09619 545-1106): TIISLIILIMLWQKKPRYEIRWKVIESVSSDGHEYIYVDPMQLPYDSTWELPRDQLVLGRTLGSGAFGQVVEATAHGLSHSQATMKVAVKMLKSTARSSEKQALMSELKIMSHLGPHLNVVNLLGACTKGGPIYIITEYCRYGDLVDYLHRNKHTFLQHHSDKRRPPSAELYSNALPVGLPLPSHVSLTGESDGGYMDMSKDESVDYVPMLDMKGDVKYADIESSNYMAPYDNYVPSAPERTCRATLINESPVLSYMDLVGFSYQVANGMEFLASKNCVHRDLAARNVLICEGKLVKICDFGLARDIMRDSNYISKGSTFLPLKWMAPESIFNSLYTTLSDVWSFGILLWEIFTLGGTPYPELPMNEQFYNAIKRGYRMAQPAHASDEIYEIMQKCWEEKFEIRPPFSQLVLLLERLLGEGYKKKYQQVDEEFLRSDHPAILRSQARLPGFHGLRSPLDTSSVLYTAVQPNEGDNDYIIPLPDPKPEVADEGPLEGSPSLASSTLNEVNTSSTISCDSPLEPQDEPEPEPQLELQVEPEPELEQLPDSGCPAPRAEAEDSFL

CCOc1cc2c(cc1OCCCO)-c1n[nH]c(Nc3ccc(F)c(Cl)c3)c1C2 [Compound 368, 3-[3-(3-Chloro-4-fluoro-phenylamino)-6-ethoxy-2,4-dihydro-indeno[1,2-c]pyrazol-7-yloxy]-propan-1-ol]
inhibition at 10 µM (PDGF-R kinase activity): 89.5%
IC50 [1]: 0.0629 µM

COc1cc2c(cc1OC)-c1c(c(Nc3cccc(F)c3)nn1COC(C)=O)C2 [Compound 496, Acetic acid 3-(3-fluoro-phenylamino)-6,7-dimethoxy-4H-indeno[1,2-c]pyrazol-1-ylmethyl ester]
inhibition at 10 µM (PDGF-R kinase activity): 88.5%
IC50 [1]: 0.0136 µM

OCCCOc1cccc2c1Cc1c-2n[nH]c1Nc1cccc(Cl)c1 [Compound 440, 3-[3-(3-Chloro-phenylamino)-2,4-dihydro-indeno[1,2-c]pyrazol-5-yloxy]-propan-1-ol]
inhibition at 10 µM (PDGF-R kinase activity): 89.5%
IC50 [1]: 0.0457 µM

COc1cc2c(cc1OC)-c1n[nH]c(NC3CCCCC3)c1C2 [Compound 67, Cyclohexyl-(6,7-dimethoxy-2,4-dihydro-indeno[1,2-c]pyrazol-3-yl)-amine]
inhibition at 10 µM (PDGF-R kinase activity): 77%
IC50 [1]: 0.617 µM

COc1ccc(Nc2[nH]nc3c2Cc2c(OC)cccc2-3)c(OC)c1 [Compound 148, (2,4-Dimethoxy-phenyl)-(5-methoxy-2,4-dihydro-indeno[1,2-c]pyrazol-3-yl)-amine]
inhibition at 10 µM (PDGF-R kinase activity): 57%
IC50 [1]: 8.6 µM

OC1c2ccccc2-c2n[nH]c(Nc3ccccc3)c21 (centres unmarked) [Compound 50, 3-Phenylamino-2,4-dihydro-indeno[1,2-c]pyrazol-4-ol]
inhibition at 10 µM (PDGF-R kinase activity): 38%
IC50 [1]: 11.4 µM

COc1cc2c(cc1OC)C(C)c1c-2n[nH]c1Nc1cccc(Br)c1 (single isomer, unassigned) [Compound 568, *S-(3-Bromo-phenyl)-(6,7-dimethoxy-4-methyl-2,4-dihydro-indeno[1,2-c]pyrazol-3-yl)-amine]
inhibition at 10 µM (PDGF-R kinase activity): 78%
IC50 [1]: 0.79 µM

CN(C)CCCOc1cccc2c1Cc1c-2n[nH]c1Nc1ccccc1 [Compound 71, [5-(3-Dimethylamino-propoxy)-2,4-dihydro-indeno[1,2-c]pyrazol-3-yl]-phenyl-amine]
inhibition at 10 µM (PDGF-R kinase activity): 110%
IC50 [1]: 0.185 µM

COc1cc2c(cc1OC)-c1n[nH]c(Nc3ccc4cn[nH]c4c3)c1C2 [Compound 37, (6,7-Dimethoxy-2,4-dihydro-indeno[1,2-c]pyrazol-3-yl)-(1H-indazol-6-yl)-amine]
inhibition at 10 µM (PDGF-R kinase activity): 80%
IC50 [1]: 1.98 µM

Nc1ccc2c(c1)Cc1c-2n[nH]c1Nc1ccccc1 [Compound 66, N3-Phenyl-2,4-dihydro-indeno[1,2-c]pyrazole-3,6-diamine]
inhibition at 10 µM (PDGF-R kinase activity): 108%
IC50 [1]: 0.092 µM

COc1cc2c(cc1OC)-c1n[nH]c(Nc3ccccc3Br)c1C2 [Compound 43, (2-Bromo-phenyl)-(6,7-dimethoxy-2,4-dihydro-indeno[1,2-c]pyrazol-3-yl)-amine]
inhibition at 10 µM (PDGF-R kinase activity): 60%
IC50 [1]: 0.195 µM

COc1cc2c(c(Cc3ccccc3)c1O)-c1n[nH]c(Nc3cccc(F)c3)c1C2 [Compound 606, 8-Benzyl-3-(3-fluoro-phenylamino)-6-methoxy-2,4-dihydro-indeno[1,2-c]pyrazol-7-ol]
inhibition at 10 µM (PDGF-R kinase activity): 53.5%

COc1cc2c(cc1OC)-c1n[nH]c(Nc3ccccc3C(C)C)c1C2 [Compound 57, (6,7-Dimethoxy-2,4-dihydro-indeno[1,2-c]pyrazol-3-yl)-(2-isopropyl-phenyl)-amine]
inhibition at 10 µM (PDGF-R kinase activity): 71%
IC50 [1]: 2.15 µM

COc1cc2c(cc1OCC(O)CN1CCCC1)Cc1c-2n[nH]c1NCc1ccccc1F (centres unmarked) [Compound 397, 1-[3-(2-Fluoro-benzylamino)-7-methoxy-2,4-dihydro-indeno[1,2-c]pyrazol-6-yloxy]-3-pyrrolidin-1-yl-propan-2-ol]
inhibition at 10 µM (PDGF-R kinase activity): 92%
IC50 [1]: 0.0077 µM

Nc1ccc2c(c1)Cc1c-2n[nH]c1Nc1cccc(Br)c1 [Compound 117, N3-(3-Bromo-phenyl)-2,4-dihydro-indeno[1,2-c]pyrazole-3,6-diamine]
inhibition at 10 µM (PDGF-R kinase activity): 98%
IC50 [1]: 0.13 µM

COc1cc2c(cc1OC)-c1n[nH]c(NCc3ccccc3F)c1C2 [Compound 325, (6,7-Dimethoxy-2,4-dihydro-indeno[1,2-c]pyrazol-3-yl)-(2-fluoro-benzyl)-amine]
inhibition at 10 µM (PDGF-R kinase activity): 61%
IC50 [1]: 0.0967 µM

COc1cc2c(cc1OC)-c1n[nH]c(NCc3cccc(F)c3)c1C2 [Compound 327, (6,7-Dimethoxy-2,4-dihydro-indeno[1,2-c]pyrazol-3-yl)-(3-fluoro-benzyl)-amine]
inhibition at 10 µM (PDGF-R kinase activity): 52%
IC50 [1]: 10.6 µM

Cc1cccc(CNc2[nH]nc3c2Cc2ccc(C)cc2-3)c1 [Compound 314, (3-Methyl-benzyl)-(7-methyl-2,4-dihydro-indeno[1,2-c]pyrazol-3-yl)-amine]
inhibition at 10 µM (PDGF-R kinase activity): 76%
IC50 [1]: 0.894 µM

COc1cc2c(cc1OC)-c1nn(C(=O)NCCN3CCOCC3)c(Nc3cccc(F)c3)c1C2 [Compound 522, 3-(3-Fluoro-phenylamino)-6,7-dimethoxy-4H-indeno[1,2-c]pyrazole-2-carboxylic acid (2-morpholin-4-yl-ethyl)-amide]
inhibition at 10 µM (PDGF-R kinase activity): 94%
IC50 [1]: 0.791 µM

CCOc1cc2c(cc1OCCCO)-c1n[nH]c(Nc3cccc(F)c3)c1C2 [Compound 365, 3-[6-Ethoxy-3-(3-fluoro-phenylamino)-2,4-dihydro-indeno[1,2-c]pyrazol-7-yloxy]-propan-1-ol]
inhibition at 10 µM (PDGF-R kinase activity): 99.5%
IC50 [1]: 0.0113 µM

OCCCOc1cccc2c1Cc1c-2n[nH]c1Nc1cccc(F)c1 [Compound 442, 3-[3-(3-Fluoro-phenylamino)-2,4-dihydro-indeno[1,2-c]pyrazol-5-yloxy]-propan-1-ol]
inhibition at 10 µM (PDGF-R kinase activity): 94.5%
IC50 [1]: 0.205 µM

COc1cc2c(cc1OC)-c1n[nH]c(Nc3ccc(C#N)cc3)c1C2 [Compound 59, 4-(6,7-Dimethoxy-2,4-dihydro-indeno[1,2-c]pyrazol-3-ylamino)-benzonitrile]
inhibition at 10 µM (PDGF-R kinase activity): 71%
IC50 [1]: 1.82 µM

COc1ccc(Nc2[nH]nc3c2Cc2cc(F)ccc2-3)cc1Cl [Compound 288, (3-Chloro-4-methoxy-phenyl)-(6-fluoro-2,4-dihydro-indeno[1,2-c]pyrazol-3-yl)-amine]
inhibition at 10 µM (PDGF-R kinase activity): 88.5%
IC50 [1]: 0.219 µM

CC1c2ccccc2-c2n[nH]c(Nc3cc(F)ccc3F)c21 (centres unmarked) [Compound 112, (2,5-Difluoro-phenyl)-(4-methyl-2,4-dihydro-indeno[1,2-c]pyrazol-3-yl)-amine]
inhibition at 10 µM (PDGF-R kinase activity): 72%
IC50 [1]: 0.083 µM

COc1cc2c(cc1OC)-c1n[nH]c(Nc3cccc(OC(C)C)c3)c1C2 [Compound 584, (6,7-Dimethoxy-2,4-dihydro-indeno[1,2-c]pyrazol-3-yl)-(3-isopropoxy-phenyl)-amine]
inhibition at 10 µM (PDGF-R kinase activity): 109%
IC50 [2]: 0.0111 µM

COc1cc2c(cc1OC)-c1n[nH]c(NCc3ccc(F)cc3)c1C2 [Compound 331, (6,7-Dimethoxy-2,4-dihydro-indeno[1,2-c]pyrazol-3-yl)-(4-fluoro-benzyl)-amine]
inhibition at 10 µM (PDGF-R kinase activity): 93%
IC50 [1]: 0.189 µM

CCOc1cc2c(cc1OCC)-c1n[nH]c(Nc3ccc(F)c(Cl)c3)c1C2 [Compound 246, (3-Chloro-4-fluoro-phenyl)-(6,7-dioethoxy-2,4-dihydro-indeno[1,2-c]pyrazol-3-yl)-amine]
inhibition at 10 µM (PDGF-R kinase activity): 77%
IC50 [1]: 0.0121 µM

OCCCOc1cc2c(cc1OCCCO)-c1n[nH]c(Nc3cccnc3)c1C2 [Compound 372, 3-[7-(3-Hydroxy-propoxy)-3-(pyridin-3-ylamino)-2,4-dihydro-indeno[1,2-c]pyrazol-6-yloxy]-propan-1-ol]
inhibition at 10 µM (PDGF-R kinase activity): 100%
IC50 [1]: 0.0155 µM

COc1cc2c(cc1OC)-c1nn(C(=O)CC(=O)N3CCCC3)c(Nc3cccc(F)c3)c1C2 [Compound 535, 1-[3-(3-Fluoro-phenylamino)-6,7-dimethoxy-4H-indeno[1,2-c]pyrazol-2-yl]-3-pyrrolidin-1-yl-propane-1,3-dione]
inhibition at 10 µM (PDGF-R kinase activity): 105%
IC50 [1]: 0.0322 µM

COc1cc2c(cc1OC)-c1nn(C)c(Nc3cccc(F)c3)c1C2 [Compound 610, (6,7-dimethoxy-2-methyl-1,4-dihydro-indeno[1,2-c]pyrazole-3-yl)-(3-fluoro-phenyl)-amine]
inhibition at 10 µM (PDGF-R kinase activity): 51.5%
IC50 [2]: 9.38 µM
